Experimental data from US9999621B2, “Medical use of artemisinin compounds and gephyrin agonists” (CeMM-Forschungszentrum für Molekulare Medizin GmbH, priority 2014, dated 2018).
Read-outs that look alike come from different tables or passages of the source.

Experiments:
[1] = system: Min6 cells overexpressing ARX; assay: High-throughput screen for functional repressors of ARX, insulin immunofluorescence; type: cell-based, mouse
Protocol: Mouse pancreatic cell lines αTC1 (provided by Novo Nordisk) and βTC3 (provided by Novo Nordisk) were grown in low-glucose DMEM supplemented by 10% FBS, 50 U/mL penicillin and 50 μg/mL streptomycin. Mouse pancreatic cell lines Min6 (provided by Novo Nordisk) with Doxycycline inducible construct was grown in high-glucose DMEM supplemented by 15% Tet System Approved FBS (Clonetech 631106), 71 uM 2-mercaptoethanol, 50 U/mL penicillin and 50 ug/mL streptomycin. The cell culture for human islets followed established protocols (Walpita et al., 2012).
Compounds (50 nL) were transferred to black optical suitable 384-well plate (Corning 3712) from DMSO stock plates using acoustic transfer (Labcyte Inc.). Min6 cells (3000 cells per well) were plated in 50 ul media on top of the compounds. Three days after treatment, cells were fixed in 3.7% formaldehyde for ten minutes at room temperature. Following PBS washing, cells were fixed with cold pure methanol at −20° C. for 10 minutes, permeabilized by 1% Triton X-100 in PBS for 30 minutes and blocked by 3% BSA in PBS for 30 minutes. Twenty microliters of primary anti-insulin antibody, diluted in 1:2000 in 1.5% BSA, was added per well and incubated in 4° C. overnight. […]
Images were taken by an automated microscope (Perkin Elmer Operetta) using a 20× objective. […] Images were analyzed by the Harmony (Perkin Elmer) software. […]

alphaTC1 cells = assay: Insulin expression in alpha cell line, immunofluorescence; type: cell-based, mouse; conditions: for insulin expression in alpha cells: alphaTC1 cells, immunofluorescence
gephyrin [2] = target: T1, gephyrin (Mus musculus, UniProt Q8BUV3); assay: Gephyrin protein levels in alpha cells, Western blot and immunofluorescence; type: cell-based; parameters: endogenous in cells; host or cells: aTC1 mouse pancreatic alpha cell line; conditions: alpha cell line
T1 sequence (Q8BUV3 1-769): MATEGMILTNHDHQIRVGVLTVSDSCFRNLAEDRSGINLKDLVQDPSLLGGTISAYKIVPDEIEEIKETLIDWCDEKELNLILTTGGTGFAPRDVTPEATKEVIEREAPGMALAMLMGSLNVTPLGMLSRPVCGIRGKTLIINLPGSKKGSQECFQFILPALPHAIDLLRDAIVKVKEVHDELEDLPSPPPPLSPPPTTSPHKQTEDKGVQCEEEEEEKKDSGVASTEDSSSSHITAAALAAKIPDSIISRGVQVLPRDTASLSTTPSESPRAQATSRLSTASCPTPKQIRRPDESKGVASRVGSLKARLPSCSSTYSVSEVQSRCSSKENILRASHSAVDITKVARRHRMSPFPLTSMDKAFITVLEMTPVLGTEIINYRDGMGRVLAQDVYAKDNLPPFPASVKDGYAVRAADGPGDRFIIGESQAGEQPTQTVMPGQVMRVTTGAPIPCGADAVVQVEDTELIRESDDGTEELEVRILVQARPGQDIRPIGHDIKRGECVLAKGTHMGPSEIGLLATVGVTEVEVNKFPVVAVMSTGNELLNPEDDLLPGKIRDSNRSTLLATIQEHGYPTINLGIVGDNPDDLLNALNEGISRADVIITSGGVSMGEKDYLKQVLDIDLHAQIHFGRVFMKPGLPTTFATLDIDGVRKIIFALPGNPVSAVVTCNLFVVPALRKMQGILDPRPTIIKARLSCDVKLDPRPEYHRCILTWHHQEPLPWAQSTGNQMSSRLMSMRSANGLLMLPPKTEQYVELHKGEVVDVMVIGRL
Protocol: Whole cell extracts were generated by lysing cells in NP-40 buffer containing 150 mM sodium chloride, 1.0% NP-40 and 50 mM Tris, pH 8.0 supplemented by Protease Inhibitor Cocktail (Roche). The whole-cell lysate (30 μg) was loaded onto a SDSpolyacrylamide gel for electrophoresis at 30 mA per gel, and then transferred by electrophoresis to a nitrocellulose membrane (GE Healthcare Life Science). All the blots were incubated with the corresponding primary antibodies diluted in 1:1000 in 5% milk at 4° C. overnight and with HRP-labeled secondary antibodies (diluted 1:20000) for 1 h. The signals were detected using ECL Prime Western blotting Detection Reagent (Amersham).

aTC1 cells = assay: GABAR antagonists combined with artemether, insulin immunofluorescence; type: cell-based, mouse
Btbd9 = target: T2, Btbd9 (Mus musculus, UniProt Q8C726); assay: Chemical proteomics pull-down with artesunate matrix, competition by free artemether; type: binding; conditions: artesunate coupled to solid support, with and without competing free artemether
T2 construct: using 10 mg total cell lysate as protein input per replicate; endogenous in cells; host or cells: cell lysate
T2 sequence (Q8C726 1-612): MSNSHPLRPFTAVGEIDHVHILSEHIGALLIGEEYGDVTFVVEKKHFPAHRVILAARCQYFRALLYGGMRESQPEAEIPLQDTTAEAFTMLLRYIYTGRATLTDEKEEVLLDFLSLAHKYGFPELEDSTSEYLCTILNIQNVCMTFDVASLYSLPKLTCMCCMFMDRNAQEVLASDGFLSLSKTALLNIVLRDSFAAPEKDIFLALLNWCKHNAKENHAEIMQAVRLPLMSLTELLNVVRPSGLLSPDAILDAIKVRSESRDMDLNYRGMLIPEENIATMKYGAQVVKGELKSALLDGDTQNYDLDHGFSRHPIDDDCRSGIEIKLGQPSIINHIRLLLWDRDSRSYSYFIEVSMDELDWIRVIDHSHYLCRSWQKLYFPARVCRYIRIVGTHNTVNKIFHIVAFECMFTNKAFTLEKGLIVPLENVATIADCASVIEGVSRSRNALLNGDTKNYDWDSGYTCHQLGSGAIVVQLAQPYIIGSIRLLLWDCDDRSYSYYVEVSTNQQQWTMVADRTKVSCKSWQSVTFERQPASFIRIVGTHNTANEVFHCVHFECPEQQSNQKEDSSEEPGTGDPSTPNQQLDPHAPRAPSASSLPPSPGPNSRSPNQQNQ
Protocol: (§1) Drug-affinity matrices were prepared essentially as described previously (Huber et al, 2014). Briefly, ethylenediamine (2.7 μL, 40 μmol), ethanolamine (9.7 μL, 160 μmol), and triethylamine (15 μL, 108 μmol) were added to 500 μL NHS-activated Sepharose 4 Fast Flow beads (GE Healthcare Bio-Sciences AB, Uppsala, Sweden) and the reaction was put on a rotary shaker for 24 h. Beads were washed and resuspended in DMSO and NHS-activated artesunate (100 μL, 1.00 μmol) was added to the suspension, and the mixture was put on a rotary shaker for 24 h. Unreacted beads were blocked by addition of NHS-acetate (10 μmol) and triethylamine (25 μL, 180 μmol), followed by agitation on a rotary shaker for 24 h. After washing with DMSO and lysis buffer, beads were incubated with cell lysates.
(§2) Affinity chromatography and elution were performed in duplicate as reported previously (Huber et al, 2014), using 10 mg total cell lysate as protein input per replicate. […]
(§3) The initial peptide identifications were used to deduce independent linear transformations for precursor and fragment masses that would minimize the mean square deviation of measured masses from theoretical. […] A false discovery rate (FDR) of <1% for protein identifications and <0.1% for peptides (including the ones exported with lower scores) was determined by applying the same procedure against a database of reversed protein sequences. […]

CUL3 = assay: as above; type: binding, mouse; conditions: artesunate coupled to solid support, with and without competing free artemether
Protocol: as §1, §2, §3

gephyrin [3] = target: T1, gephyrin; assay: as above; type: binding; parameters: using 10 mg total cell lysate as protein input per replicate; endogenous in cells; host or cells: cell lysate; conditions: artesunate coupled to solid support, with and without competing free artemether
Protocol: as §1, §2, §3

For `CO[C@H]1O[C@@H]2O[C@@]3(C)CC[C@H]4[C@H](C)CC[C@@H]([C@H]1C)[C@@]24OO3` [artemether], which EC50 ([1]; Mus musculus, Min6 cells overexpressing ARX, dose response, immunofluorescence (FIG. 3c), read-out: half maximum effective concentration) is on record?
The EC50 was less than 1 µM.

What about the EC50 (alphaTC1 cells; Mus musculus, 72 h, alpha cells, inducing insulin expression, immunofluorescence (FIG. 3d), read-out: half maximum effective concentration) of the same molecule?
Its EC50 is less than 10 µM.

Which gephyrin protein levels (gephyrin [2]) does the source give for `C[C@@H]1CC[C@H]2[C@@H](C)C(=O)O[C@@H]3O[C@@]4(C)CC[C@@H]1[C@]32OO4` [artemisinin, (3R,5aS,6R,8aS,9R,12S,12aR)-octahydro-3,6,9-trimethyl-3,12-epoxy-12H-pyrano[4,3-j]-1,2-benzodioxepin-10(3H)-one] here?
The gephyrin protein levels was “dose-dependent increase”.

How did the “insulin expression in alpha cells” value (alphaTC1 cells) turn out when `COC1OC2OC3(C)CCC4C(C)CCC(C1C)C24O3` (centres unmarked) [Deoxyartemether] was run?
The value was “no effects”.

With `CCO[C@H]1O[C@@H]2O[C@@]3(C)CC[C@H]4[C@H](C)CC[C@@H]([C@H]1C)[C@@]24O3` [deoxyarteether] as the molecule, how does the “insulin expression in alpha cells” value (alphaTC1 cells) read?
The value was “inactive”.

`COc1ccc(-c2ccc(=N)n(CCCC(=O)O)n2)cc1` [gabazine] was tested. Which “effect of GABAR antagonist on the effects of artemether” value (aTC1 cells) did it give?
The value was “inhibited the effects of artemether”.

What about the “effect of GABAR antagonist on the effects of artemether” value (aTC1 cells; listed as Gabazine) of the same molecule?
Its value is “inhibits the effects of Artemether”.

`C[C@H]1[C@H](OC(=O)CCC(=O)O)O[C@@H]2O[C@@]3(C)CC[C@H]4[C@H](C)CC[C@@H]1[C@@]24OO3` [artesunate] was tested. Which “insulin levels in the presence of ARX (ARX overexpression phenotype)” value ([1]; Min6 cells induced to overexpress ARX, 72 hours, immunofluorescence) did it give?
Its value is “active”.

And the “insulin expression in alpha cells” value (alphaTC1 cells)?
Its value is “active”.

And the enrichment in pull-down (Btbd9)?
Its enrichment in pull-down is “strong enrichment”.

And the enrichment in pull-down (CUL3)?
Its enrichment in pull-down is “strong enrichment”.

What about the “specific interactor identified by mass spectrometry” value (gephyrin [3]) of the same molecule?
The value was “top specific interactor”.

For `Cc1ccsc1C(=CCCN1CCC[C@@H](C(=O)O)C1)c1sccc1C` [thiagabine], which “insulin expression in alpha cells” value (alphaTC1 cells) is on record?
Its value is “increased the insulin expression”.

What about the “insulin expression in alpha cells” value (alphaTC1 cells; listed as Thiagabine) of the same molecule?
The value was “increases insulin production”.
